What follows are compounds tested against TARP γ8 dependent AMPA receptor (GRIA1o-CACNG8 fusion construct) (Homo sapiens (Human), UniProt P42261+Q8WXS5) (assay: Calcium flux assay (FLIPR), inhibition of glutamate response of GluA1o-γ8 channel). Settings: HEK293 cells stably expressing GRIA1o-CACNG8 fusion; calcium flux after 15 μM glutamate; negative log of the IC50 in molar.
Type: cell-based
Text: This assay was used to test compounds for their ability to inhibit TARP γ8 dependent AMPA receptor activity. The AMPA receptor is a non-selective cation channel activated by glutamate. […] But, this desensitization is incomplete, and a substantial steady-state current remains in the sustained presence of glutamate (Cho et al. (2007). “Two families of TARP isoforms that have distinct effects on the kinetic properties of AMPA receptors and synaptic currents.” Neuron 55(6): 890-904).
An in vitro assay was used to determine the potency of test compounds as inhibitors of the glutamate response of the channel formed by GluA10-γ8. To ensure a 1:1 stoichiometry of GluA1o and γ8 subunits in the expressed channel, a fusion of the cDNAs for GRIA1o and CACNG8 was used. Following Shi et al (2009) “The stoichiometry of AMPA receptors and TARPs varies by neuronal cell type.” Neuron 62(5): 633-640), the C-terminus of the cDNA for GRIA1o was fused to the N-terminus of the cDNA for γ8. The linker sequence was […]. Channels expressed with this construct appear to have similar properties to channels formed by co-expression of GRIA1o with an excess of CACNG8 (Shi et al. 2009). A clonal cell line in HEK293 cells stably expressing this construct, with a geneticin selection marker, was generated for use in this assay.
Cell expressing the GRIA1o-CACNG8 fusion construct were grown in a monolayer in 96- or 384-well microtiter plates. They were washed with assay buffer (135 mM NaCl, 4 mM KCl, 3 mM CaCl2, 1 mM MgCl2, 5 mM glucose, 10 mM HEPES, pH 7.4, 300 mOs) using a Biotek EL405 plate washer. The cells were then loaded with a calcium-sensitive dye (Calcium-5 or Calcium-6, Molecular Devices) and the test compounds at a range of concentrations. Calcium flux following the addition of 15 μM glutamate was monitored using a Molecular Devices FLIPR Tetra.
The fluorescence in each well was normalized to the fluorescence of negative and positive control wells. The negative control wells had no added compounds, and the positive control wells had been incubated with 10 μM CP465022 (a non-subtype-selective AMPA receptor antagonist) (Lazzaro et al. (2002). “Functional characterization of CP-465,022, a selective, noncompetitive AMPA receptor antagonist.” Neuropharmacology 42(2): 143-153). The responses to glutamate as functions of the test compound concentrations were fitted to a four-parameter logistic function. The fitted parameter corresponding to the midpoint was taken to be the potency of inhibition of the compound. The data in Table 4 below illustrates the observed potency for the compounds described herein. pIC50 refers to the negative log of the IC50 in molar.

Chain of TARP γ8 dependent AMPA receptor (GRIA1o-CACNG8 fusion construct) (P42261 other isoform, or with tags, fused parts or gaps): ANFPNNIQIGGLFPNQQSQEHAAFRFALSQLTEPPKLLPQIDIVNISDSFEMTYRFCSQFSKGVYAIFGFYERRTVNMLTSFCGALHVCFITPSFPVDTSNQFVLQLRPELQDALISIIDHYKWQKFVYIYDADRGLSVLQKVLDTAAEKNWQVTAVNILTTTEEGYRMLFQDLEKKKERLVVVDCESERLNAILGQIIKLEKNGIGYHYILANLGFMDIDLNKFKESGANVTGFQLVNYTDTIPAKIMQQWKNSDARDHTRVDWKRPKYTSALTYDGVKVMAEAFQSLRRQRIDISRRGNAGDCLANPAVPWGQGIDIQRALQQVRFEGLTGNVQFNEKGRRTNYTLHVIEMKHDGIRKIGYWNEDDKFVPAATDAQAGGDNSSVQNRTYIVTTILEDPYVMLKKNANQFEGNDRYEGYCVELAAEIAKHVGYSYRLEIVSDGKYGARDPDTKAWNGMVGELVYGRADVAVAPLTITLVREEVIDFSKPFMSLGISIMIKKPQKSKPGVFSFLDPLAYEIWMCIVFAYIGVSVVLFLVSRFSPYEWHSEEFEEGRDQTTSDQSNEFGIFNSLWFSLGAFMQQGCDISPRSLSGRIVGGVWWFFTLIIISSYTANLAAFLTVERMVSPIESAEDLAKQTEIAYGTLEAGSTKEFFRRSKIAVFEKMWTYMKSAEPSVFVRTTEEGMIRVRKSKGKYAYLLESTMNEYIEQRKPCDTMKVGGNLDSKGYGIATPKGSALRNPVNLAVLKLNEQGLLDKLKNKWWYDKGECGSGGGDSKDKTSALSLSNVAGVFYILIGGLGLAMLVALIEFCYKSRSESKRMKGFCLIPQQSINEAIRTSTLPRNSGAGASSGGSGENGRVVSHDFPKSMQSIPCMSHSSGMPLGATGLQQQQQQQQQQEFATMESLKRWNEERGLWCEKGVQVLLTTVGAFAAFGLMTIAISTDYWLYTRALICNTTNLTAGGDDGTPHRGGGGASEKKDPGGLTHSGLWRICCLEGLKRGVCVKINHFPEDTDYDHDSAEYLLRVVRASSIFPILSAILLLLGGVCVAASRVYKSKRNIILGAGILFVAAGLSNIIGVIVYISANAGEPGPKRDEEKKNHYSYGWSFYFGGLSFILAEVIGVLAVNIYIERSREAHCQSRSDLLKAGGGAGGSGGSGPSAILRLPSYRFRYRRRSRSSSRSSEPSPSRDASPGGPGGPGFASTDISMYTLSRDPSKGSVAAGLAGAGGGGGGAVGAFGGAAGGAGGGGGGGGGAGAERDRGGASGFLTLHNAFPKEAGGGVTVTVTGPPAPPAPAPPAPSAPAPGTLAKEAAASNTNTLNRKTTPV

Row | SMILES | IC50 | pIC50
1 | CCCc1nc2c(Cl)cc(C(F)(F)F)c(-c3cc(Cl)c4[nH]ncc4c3)n2n1 [Example 96, 8-Chloro-5-(7-chloro-1H-indazol-5-yl)-2-propyl-6-(trifluoromethyl)-[1,2,4]triazolo[1,5-a]pyridine] | 0.398 nM | 
2 | COc1cc(-c2c(C(F)(F)F)cc(C)c3nc(C(F)(F)F)nn23)cc2c1NC(=O)C2 [Example 106, 7-Methoxy-5-(8-methyl-2,6-bis(trifluoromethyl)-[1,2,4]triazolo[1,5-a]pyridin-5-yl)indolin-2-one] | 1.26 nM | 
3 | Cc1cc(-c2c(C(F)(F)F)ccc3cc(C(F)(F)F)nn23)cc2c1NC(=O)C2 [Example 65, 5-(2,6-Bis(trifluoromethyl)pyrazolo[1,5-a]pyridin-7-yl)-7-methylindolin-2-one] | 0.0158 nM | 
4 | CCc1cc(C(F)F)c(-c2cc(Cl)c3[nH]ncc3c2)n2nc(C3CC3)nc12 [Example 93, 5-(7-Chloro-1H-indazol-5-yl)-2-cyclopropyl-6-(difluoromethyl)-8-ethyl-[1,2,4]triazolo[1,5-a]pyridine] | 0.158 nM | 
5 | CCc1nc2ccc(C(F)F)c(-c3cc(C)c4c(c3)CC(=O)N4)n2n1 [Example 47, 5-(6-(Difluoromethyl)-2-ethyl-[1,2,4]triazolo[1,5-a]pyridin-5-yl)-7-methylindolin-2-one] | 3.98 nM | 
6 | FC(F)(F)c1cc2ccc(C(F)(F)F)c(-c3cc(Cl)c4[nH]ncc4c3)n2n1 [Example 63, 5-(2,6-Bis(trifluoromethyl)pyrazolo[1,5-a]pyridin-7-yl)-7-chloro-1H-indazole] | 0.0158 nM | 
7 | CCc1nc2c(Cl)cc(C(F)(F)F)c(-c3cc(Cl)c4[nH]ncc4c3)n2n1 [Example 29, 8-Chloro-5-(7-chloro-1H-indazol-5-yl)-2-ethyl-6-(trifluoromethyl)-[1,2,4]triazolo[1,5-a]pyridine] | 0.398 nM | 
8 | Cc1nc2ccc(C(F)(F)F)c(-c3cc(C)c4c(c3)CC(=O)N4)n2n1 [Example 24, 7-Methyl-5-(2-methyl-6-(trifluoromethyl)-[1,2,4]triazolo[1,5-a]pyridin-5-yl)indolin-2-one] | 20 nM | 
9 | FC(F)(F)c1ccc2cc(C3CC3)nn2c1-c1cc(Cl)c2[nH]ncc2c1 [Example 118, 7-Chloro-5-(2-cyclopropyl-6-(trifluoromethyl)pyrazolo[1,5-a]pyridin-7-yl)-1H-indazole] |  | 10.2
10 | CCc1nc2ccc(C(F)(F)F)c(-c3cc(C)c4c(c3)CC(=O)N4)n2n1 [Example 28, 5-(2-Ethyl-6-(trifluoromethyl)-[1,2,4]triazolo[1,5-a]pyridin-5-yl)-7-methylindolin-2-one] | 3.98 nM | 
11 | Cc1cc(-c2c(C(F)(F)F)cc(C)c3nc(C4CC4)nn23)cc2cn[nH]c12 [Example 76, 2-Cyclopropyl-8-methyl-5-(7-methyl-1H-indazol-5-yl)-6-(trifluoromethyl)-[1,2,4]triazolo[1,5-a]pyridine] | 0.158 nM | 
12 | Cc1cc(-c2c(C(F)F)cc(C)c3cc(C(F)(F)F)nn23)cc2c1NC(=O)C2 [Example 122, 5-[6-(Difluoromethyl)-4-methyl-2-(trifluoromethyl)pyrazolo[1,5-a]pyridin-7-yl]-7-methyl-indolin-2-one] | 0.0501 nM | 
13 | CCc1nc2ccc(C(F)(F)F)c(-c3cc(C)c4[nH]ncc4c3)n2n1 [Example 26, 2-Ethyl-5-(7-methyl-1H-indazol-5-yl)-6-(trifluoromethyl)-[1,2,4]triazolo[1,5-a]pyridine] | 1 nM | 
14 | CCc1nc2c(CC)cc(C(F)(F)F)c(-c3cc(Cl)c4[nH]ncc4c3)n2n1 [Example 89, 5-(7-Chloro-1H-indazol-5-yl)-2,8-diethyl-6-(trifluoromethyl)-[1,2,4]triazolo[1,5-a]pyridine] | 0.794 nM | 
15 | FC(F)(F)c1nc2ccc(C(F)(F)F)c(-c3cc(Cl)c4[nH]ncc4c3)n2n1 [Example 1, 5-(7-Chloro-1H-indazol-5-yl)-2,6-bis(trifluoromethyl)-[1,2,4]triazolo[1,5-a]pyridine] | 0.0794 nM | 
16 | CCCc1nc2c(C)cc(C(F)F)c(-c3cc(C)c4[nH]ncc4c3)n2n1 [Example 95, 6-(Difluoromethyl)-8-methyl-5-(7-methyl-1H-indazol-5-yl)-2-propyl-[1,2,4]triazolo[1,5-a]pyridine] | 3.16 nM | 

Row | SMILES | IC50 | pIC50
17 | CCc1nc2ccc(C(F)(F)F)c(-c3cc(Cl)c4[nH]ncc4c3)n2n1 [Example 25, 5-(7-Chloro-1H-indazol-5-yl)-2-ethyl-6-(trifluoromethyl)-[1,2,4]triazolo[1,5-a]pyridine] | 0.398 nM | 
18 | CCc1cc(C(F)F)c(-c2cc(C)c3[nH]ncc3c2)n2nc(C(F)(F)F)nc12 [Example 92, 6-(Difluoromethyl)-8-ethyl-5-(7-methyl-1H-indazol-5-yl)-2-(trifluoromethyl)-[1,2,4]triazolo[1,5-a]pyridine] | 1 nM | 
19 | Fc1ccc(-c2ccc3nc(C(F)(F)F)nn3c2-c2ccc3[nH]ncc3c2)cc1 [Example 56, 6-(4-Fluorophenyl)-5-(1H-indazol-5-yl)-2-(trifluoromethyl)-[1,2,4]triazolo[1,5-a]pyridine] | 1.26 nM | 
20 | CC(C)c1nc2ccc(C(F)(F)F)c(-c3cc(Cl)c4[nH]ncc4c3)n2n1 [Example 36, 5-(7-Chloro-1H-indazol-5-yl)-2-isopropyl-6-(trifluoromethyl)-[1,2,4]triazolo[1,5-a]pyridine] | 0.0794 nM | 
21 | COc1ccc2nc(C(F)F)nn2c1-c1cc(C(F)(F)F)c2[nH]ncc2c1 [Example 15, 2-(Difluoromethyl)-6-methoxy-5-(7-(trifluoromethyl)-1H-indazol-5-yl)-[1,2,4]triazolo[1,5-a]pyridine] | 2 nM | 
22 | Cc1cc(-c2c(C(F)F)ccc3cc(C(F)(F)F)nn23)cc2cn[nH]c12 [Example 121, 6-(Difluoromethyl)-7-(7-methyl-1H-indazol-5-yl)-2-(trifluoromethyl)pyrazolo[1,5-a]pyridine] | 0.0251 nM | 
23 | CCc1nc2c(C)cc(C(F)F)c(-c3cc(Cl)c4[nH]ncc4c3)n2n1 [Example 115, 5-(7-Chloro-1H-indazol-5-yl)-6-(difluoromethyl)-2-ethyl-8-methyl-[1,2,4]triazolo[1,5-a]pyridine] | 2 nM | 
24 | CC(C)c1nc2c(F)cc(C(F)(F)F)c(-c3cc(Cl)c4[nH]ncc4c3)n2n1 [Example 34, 5-(7-Chloro-1H-indazol-5-yl)-8-fluoro-2-isopropyl-6-(trifluoromethyl)-[1,2,4]triazolo[1,5-a]pyridine] | 0.316 nM | 
25 | CCc1nc2ccc(C(F)F)c(-c3cc(Cl)c4c(c3)CC(=O)N4)n2n1 [Example 46, 7-Chloro-5-(6-(difluoromethyl)-2-ethyl-[1,2,4]triazolo[1,5-a]pyridin-5-yl)indolin-2-one] | 3.98 nM | 
26 | Cc1cc(-c2c(C(F)(F)F)cc(C)c3nc(C(F)(F)F)nn23)cc2c1NC(=O)C2 [Example 105, 7-Methyl-5-(8-methyl-2,6-bis(trifluoromethyl)-[1,2,4]triazolo[1,5-a]pyridin-5-yl)indolin-2-one] | 0.316 nM | 
27 | CCCc1nc2c(C)cc(C(F)(F)F)c(-c3cc(C)c4[nH]ncc4c3)n2n1 [Example 84, 8-Methyl-5-(7-methyl-1H-indazol-5-yl)-2-propyl-6-(trifluoromethyl)-[1,2,4]triazolo[1,5-a]pyridine] | 1 nM | 
28 | Cc1cc(-c2c(C(F)(F)F)ccc3nc(C(F)(F)F)nn23)cc2cn[nH]c12 [Example 2, 5-(7-Methyl-1H-indazol-5-yl)-2,6-bis(trifluoromethyl)-[1,2,4]triazolo[1,5-a]pyridine] | 0.2 nM | 
29 | CCc1nc2c(C)cc(C(F)(F)F)c(-c3cc(Cl)c4[nH]ncc4c3)n2n1 [Example 35, 5-(7-Chloro-1H-indazol-5-yl)-2-ethyl-8-methyl-6-(trifluoromethyl)-[1,2,4]triazolo[1,5-]pyridine] | 0.398 nM | 
30 | O=C1Cc2cc(-c3c(C(F)(F)F)ccc4cc(C(F)(F)F)nn34)cc(Cl)c2N1 [Example 66, 5-(2,6-Bis(trifluoromethyl)pyrazolo[1,5-a]pyridin-7-yl)-7-chloroindolin-2-one] | 0.0126 nM | 
31 | O=C1Cc2cc(-c3c(C(F)(F)F)ccc4cc(C5CC5)nn34)cc(Cl)c2N1 [Example 68, 5-(2-Cyclopropyl-6-(trifluoromethyl)pyrazolo[1,5-a]pyridin-7-yl)-7-chloroindolin-2-one] | 0.02 nM | 

Reference: patent publication US10087185B2 (Janssen Pharmaceutica NV, priority 2016, dated 2018)
